Assay results as given in PMC11133627, “CATH-2-derived antimicrobial peptide inhibits multidrug-resistant Escherichia coli infection in chickens” (Frontiers in Cellular and Infection Microbiology, 2024).
Ends that are not written are not given here.

Columns and labels:
[1] = system: E. coli (ATCC 8739); experiment: Drug-sensitivity test (paper disc, inhibition zone); assay type: cell-based, Escherichia coli; set-up: key: R: resistant strains; I: intermediate strains; S: sensitive strains; conditions: 6 mm antibiotic paper on LB agar, 1×10^6 CFU/mL, 24h 37°C, inhibition zone diameter
Protocol: (§1) E. coli (ATCC 8739) and clinical isolates of E. coli (E1, E9, E12, E14, E16, and E18) were stored at the Animal Biochemical Laboratory of Shanxi Agricultural University and grown in Luria-Bertani (LB) broth as previously reported ([Zhao et al., 2021]). Circular 6 mm paper pieces were prepared with filter paper and autoclaved for sterilization. […] Then, 0.5 mL of antibiotic solution was added to 100 sterilized papers. Subsequently, the paper pieces were fully infiltrated and dried in a vacuum drying oven to produce antibiotic susceptibility papers. The E. coli strain was retrieved from the -20°C freezer and activated by incubating it on LB agar media at 37°C for 24h. Individual colonies were selected and transferred to LB liquid media. Thereafter, the E. coli suspension was obtained by shaking at 37°C and 160 r/min for 18h. The obtained suspension was centrifuged at 5000 r/min for 5min, after which the supernatant was discarded, and the bacteria were resuspended in fresh medium to a concentration of 1×10^6 CFU/mL. Two hundred microliters of the bacterial suspension mentioned above was spread evenly onto LB agar medium. Then, the antibiotic susceptibility papers were placed on the medium surface using sterile tweezers. After 24h of incubation at 37°C, the diameter of the inhibition zone was measured to determine the susceptibility of E. coli to antibiotics.

[2] = system: E. coli clinical isolate E18; experiment: as above; assay type: cell-based, Escherichia coli; set-up: key: R: resistant strains; I: intermediate strains; S: sensitive strains; conditions: 6 mm antibiotic paper on LB agar, 1×10^6 CFU/mL, 24h 37°C, inhibition zone diameter
Protocol: as §1

[3] = system: E. coli clinical isolate E9; experiment: as above; assay type: cell-based, Escherichia coli; set-up: key: R: resistant strains; I: intermediate strains; S: sensitive strains; conditions: 6 mm antibiotic paper on LB agar, 1×10^6 CFU/mL, 24h 37°C, inhibition zone diameter
Protocol: as §1

[4] = system: E. coli clinical isolate E1; assay type: cell-based; set-up: key: R: resistant strains; I: intermediate strains; S: sensitive strains; conditions: 6 mm antibiotic paper on LB agar, 1×10^6 CFU/mL, 24h 37°C, inhibition zone diameter
Protocol: as §1

[5] = system: E. coli clinical isolate E12; experiment: Drug-sensitivity test (paper disc, inhibition zone); assay type: cell-based, Escherichia coli; set-up: key to Drug sensitivity of E. coli E12: R: resistant strains; I: intermediate strains; S: sensitive strains; conditions: 6 mm antibiotic paper on LB agar, 1×10^6 CFU/mL, 24h 37°C, inhibition zone diameter
Protocol: as §1

[6] = system: E. coli clinical isolate E14; experiment: as above; assay type: cell-based, Escherichia coli; set-up: key to Drug sensitivity of E. coli E14: R: resistant strains; I: intermediate strains; S: sensitive strains; conditions: 6 mm antibiotic paper on LB agar, 1×10^6 CFU/mL, 24h 37°C, inhibition zone diameter
Protocol: as §1

[7] = system: E. coli clinical isolate E16; experiment: as above; assay type: cell-based, Escherichia coli; set-up: key to Drug sensitivity of E. coli E16: R: resistant strains; I: intermediate strains; S: sensitive strains; conditions: 6 mm antibiotic paper on LB agar, 1×10^6 CFU/mL, 24h 37°C, inhibition zone diameter
Protocol: as §1

[8] = system: E. coli (E16); experiment: Chicken infection with MDR E. coli; assay type: in vivo
Protocol: Except for the blank control group injected with 500 μL of normal saline, the other four groups were injected with 500 μL of 3×10^9 CFU/mL E. coli (E16) into the pectoral muscles. […] Clinical symptoms and were observed and documented for the chickens in each group after infection. After 72h, the chickens in each group were euthanized and examined for internal organ damage. Paraffin sections were prepared for microscopic examination of pathological changes. Under sterile conditions, 1 g samples of heart, liver, and spleen were collected, and each sample was supplemented with 20 mL of sterile PBS. After thorough grinding, the sample was diluted to the appropriate multiple, and 100 μL of the diluent was spread onto LB agar medium. The plates were incubated for 24h, after which the colonies were counted.

[9] = system: E. coli (ATCC 8739); experiment: microbe, parasite or virus in culture; assay type: cell-based, Escherichia coli; conditions: for MIC against E. coli ATCC 8739: ATCC 8739, 18 h; for MBC against E. coli ATCC 8739: ATCC 8739, 24 h
Protocol: (§2) The minimum inhibitory concentrations (MICs) of the AMPs were determined using the microbroth dilution technique ([van Harten et al., 2021]). One hundred microliters of bacterial suspension at a concentration of 1×10^6 CFU/mL was pipetted into a 96-well plate. Then, 100 μL of AMP or gentamicin at various concentrations was added, while the bacterial suspension without AMPs and blank medium were used as controls.

[10] = system: E. coli clinical isolate E12; experiment: microbe, parasite or virus in culture; assay type: cell-based, Escherichia coli; conditions: for MIC against E. coli E12: clinical isolate E12, 18 h; for MBC against E. coli E12: clinical isolate E12, 24 h
Protocol: as §2

[11] = system: E. coli clinical isolate E14; experiment: microbe, parasite or virus in culture; assay type: cell-based, Escherichia coli; conditions: for MIC against E. coli E14: clinical isolate E14, 18 h; for MBC against E. coli E14: clinical isolate E14, 24 h
Protocol: as §2

[12] = system: E. coli clinical isolate E16; experiment: microbe, parasite or virus in culture; assay type: cell-based, Escherichia coli; conditions: for MIC against E. coli E16: clinical isolate E16, 18 h; for MBC against E. coli E16: clinical isolate E16, 24 h
Protocol: as §2

[13] = system: E. coli clinical isolate E18; experiment: microbe, parasite or virus in culture; assay type: cell-based, Escherichia coli; conditions: for MIC against E. coli E18: clinical isolate E18, 18 h; for MBC against E. coli E18: clinical isolate E18, 24 h
Protocol: as §2

[14] = system: E. coli clinical isolate E9; experiment: microbe, parasite or virus in culture; assay type: cell-based, Escherichia coli; conditions: for MIC against E. coli E9: clinical isolate E9, 18 h; for MBC against E. coli E9: clinical isolate E9, 24 h
Protocol: as §2

[15] = system: E. coli clinical isolate E1; experiment: microbe, parasite or virus in culture
Protocol: as §2

[16] = system: E. coli (ATCC 8739); assay type: cell-based, Escherichia coli; conditions: ATCC 8739, 1 h
Protocol: The MICs of the AMPs against E. coli (ATCC 8739) at different temperatures and physiological salt concentrations were evaluated. The thermal stability of the AMPs was assessed by incubating them at a concentration of 500 μg/mL for 1h at 0, 37, and 100°C, using untreated AMPs as a control. The salt ion stability of the AMPs was determined by incubating them at a concentration of 500 μg/mL in solutions of NaCl (150 mM), KCl (4.5 mM), MgCl2 (1 mM), and CaCl2 (2.5 mM) for 1h, using untreated samples as controls. The changes in the MICs of the AMPs were assessed following these experimental procedures.

[17] = system: E. coli strains (ATCC 8739 and MDR clinical isolates); assay type: cell-based, Escherichia coli; conditions: ATCC 8739, 18 h
Protocol: as §2

Row | Compound | MIC against E. coli ATCC 8739 [9] | MBC against E. coli ATCC 8739 [9] | MIC against E. coli E12 [10] | MBC against E. coli E12 [10] | MIC against E. coli E14 [11] | MBC against E. coli E14 [11] | MIC against E. coli E16 [12] | MBC against E. coli E16 [12] | MIC against E. coli E18 [13] | MBC against E. coli E18 [13] | MIC against E. coli E9 [14] | MBC against E. coli E9 [14] | MIC against E. coli E1 ([15]; clinical isolate E1, 18 h) | MIC against E. coli (ATCC 8739), Salt Stability CaCl2 (2.5 mM) [16] | MIC against E. coli (ATCC 8739), Salt Stability KCl (4.5 mM) [16] | MIC against E. coli (ATCC 8739), Salt Stability MgCl2 (1 mM) [16] | MIC against E. coli (ATCC 8739), Salt Stability NaCl (150 mM) [16] | MIC against E. coli (ATCC 8739), Thermal Stability 0°C [16] | MIC against E. coli (ATCC 8739), Thermal Stability 37°C [16] | MIC against E. coli (ATCC 8739), Thermal Stability 100°C [16] | other results
1 | CCN1CCN(c2cc3c(cc2F)c(=O)c(C(=O)O)cn3C2CC2)CC1 [enrofloxacin] |  |  |  |  |  |  |  |  |  |  |  |  |  |  |  |  |  |  |  |  | Drug sensitivity of E. coli ATCC 8739 [1]: S; Drug sensitivity of E. coli E18 [2]: R; Drug sensitivity of E. coli E9 [3]: R; Drug sensitivity of E. coli E1 [4]: R; Drug sensitivity of E. coli E12 [5]: R; Drug sensitivity of E. coli E14 [6]: R; Drug sensitivity of E. coli E16 [7]: R; 3-day mortality rate ([8]; 200 μg/mL, 500 μL into pectoral muscle 4h after 1.5×10^9 CFU E16): 50%; Survival rate compared with untreated group (in words) ([8]; 3 days): no difference in survival rate; Bacterial loads in the heart, liver and spleen (in words) ([8]; after 3 days of infection, vs infected untreated): affected only the heart bacterial load
2 | RFGRFLRKIRFFRLK [C2-5] | 1 µg/mL | 1 µg/mL | 8 µg/mL | 8 µg/mL | 8 µg/mL | 8 µg/mL | 16 µg/mL | 16 µg/mL | 16 µg/mL | 32 µg/mL | 64 µg/mL | 128 µg/mL | 8 µg/mL | 8 µg/mL | 4 µg/mL | 4 µg/mL | 4 µg/mL | 1 µg/mL | 1 µg/mL | 4 µg/mL | MBC against E. coli E1 ([15]; clinical isolate E1, 24 h): 8 µg/mL
3 | RFGRFLRKIRRFIPK [C2-1] | 2 µg/mL | 4 µg/mL | 1 µg/mL | 1 µg/mL | 16 µg/mL | 16 µg/mL | 16 µg/mL | 64 µg/mL | 2 µg/mL | 4 µg/mL | 0.5 µg/mL | 1 µg/mL |  | 8 µg/mL | 2 µg/mL | 2 µg/mL | 0.5 µg/mL | 2 µg/mL | 2 µg/mL | 2 µg/mL | MBC against E. coli E1 ([15]; 50 μL from fully inhibited wells plated on LB agar, colonies counted after 24h 37°C): 16 µg/mL; MIC against E. coli E1 ([15]; microbroth dilution, 1×10^6 CFU/mL, 37°C 18h, turbidity): 16 µg/mL; MIC range over E. coli strains [17]: 0.5 to 16 µg/mL
4 | RFGRFLRKIRRFRPK [CATH-2 (1-15), reference compound] | 64 µg/mL | 64 µg/mL | 8 µg/mL | 8 µg/mL | 64 µg/mL |  | 32 µg/mL | 64 µg/mL | 64 µg/mL | 64 µg/mL | 4 µg/mL | 4 µg/mL |  | 64 µg/mL | 16 µg/mL | 16 µg/mL | 32 µg/mL | 64 µg/mL | 64 µg/mL | 32 µg/mL | 
5 | RFGRHLRKIIRFRIK [C2-3] | 16 µg/mL | 16 µg/mL | 1 µg/mL | 1 µg/mL | 8 µg/mL | 8 µg/mL | 16 µg/mL | 64 µg/mL | 16 µg/mL | 32 µg/mL | 2 µg/mL | 4 µg/mL | 32 µg/mL | 8 µg/mL | 4 µg/mL | 4 µg/mL | 16 µg/mL | 16 µg/mL | 16 µg/mL | 8 µg/mL | MBC against E. coli E1 ([15]; clinical isolate E1, 24 h): 64 µg/mL
6 | RFGRNLRKIRRFWPK [C2-4] | 16 µg/mL | 16 µg/mL | 16 µg/mL | 32 µg/mL | 32 µg/mL | 64 µg/mL | 64 µg/mL | 64 µg/mL | 128 µg/mL | 128 µg/mL | 64 µg/mL | 128 µg/mL | 128 µg/mL | 32 µg/mL | 32 µg/mL | 16 µg/mL | 32 µg/mL | 16 µg/mL | 16 µg/mL | 16 µg/mL | MBC against E. coli E1 ([15]; clinical isolate E1, 24 h): 128 µg/mL
